pIC50: −log10 of the molar value.
Biological target: b-Raf(V600E) (Homo sapiens (Human), UniProt P15056, V600E)
Assay: Raf/Mek Amplified Luminescence Proximity Homogeneous Assay (Alpha Screen)
Type: biochemical
Conditions: b-Raf(V600E) approximately 4 pM; biotinylated Mek, kinase dead approximately 10 nM; ATP 10 μM; pre-incubation 60 minutes; reaction 3 hours at room temperature; read-out: mut-B-RAF IC50
Experimental: Raf/Mek Amplified Luminescence Proximity Homogeneous Assay
Assay buffer: 50 mM Tris, pH 7.5, 15 mM MgCl2, 0.01% Bovine Serum Albumin (BSA), 1 mM dithiothreitol (DTT) Stop buffer: 60 mM ethylenediaminetetraacetic acid (EDTA), 0.01% Tween® 20 Bead buffer: 50 mM Tris, pH 7.5, 0.01% Tween® 20 […]
biotinylated Mek, kinase dead
Alpha Screen detection kit (available from PerkinElmer™, #6760617R)
Anti phospho-MEK1/2 (available from Cell Signaling Technology, Inc. #9121) 384 well assay plates (White Greiner® plates, #781207) […]
biotinylated Mek, Kinase dead approximately 10 nM
Pre-incubation time with compounds 60 minutes at room temperature
Reaction time 1 or 3 hours at room temperature
Raf and biotinylated Mek, kinase dead, were combined at 2× final concentrations in assay buffer (50 mM Tris, pH 7.5, 15 mM MgCl2, 0.01% BSA and 1 mM DTT) and dispensed 10 μl per well in assay plates (Greiner white 384 well assay plates #781207) containing 0.5 μl of 40× of a raf kinase inhibitor test compound diluted in 100% DMSO. The plate was incubated for 60 minutes at room temperature.
The Raf kinase activity reaction was started by the addition of 10 μL per well of 2×ATP diluted in assay buffer. […] Phosphorylated product was measured using a rabbit anti-p-MEK (Cell Signaling, #9121) antibody and the Alpha Screen IgG (ProteinA) detection Kit (PerkinElmer #6760617R), by the addition of 30 μL to the well of a mixture of the antibody (1:2000 dilution) and detection beads (1:2000 dilution of both beads) in bead buffer (50 mM Tris, pH 7.5, 0.01% Tween20). The additions were carried out under dark conditions to protect the detection beads from light. A lid was placed on top of the plate and incubated for 1 hour at room temperature, then the luminescence was read on a PerkinElmer Envision instrument. The concentration of each compound for 50% inhibition (IC50) was calculated by non-linear regression using XL Fit data analysis software.

Sequence of b-Raf(V600E) (P15056 whole entry V600E): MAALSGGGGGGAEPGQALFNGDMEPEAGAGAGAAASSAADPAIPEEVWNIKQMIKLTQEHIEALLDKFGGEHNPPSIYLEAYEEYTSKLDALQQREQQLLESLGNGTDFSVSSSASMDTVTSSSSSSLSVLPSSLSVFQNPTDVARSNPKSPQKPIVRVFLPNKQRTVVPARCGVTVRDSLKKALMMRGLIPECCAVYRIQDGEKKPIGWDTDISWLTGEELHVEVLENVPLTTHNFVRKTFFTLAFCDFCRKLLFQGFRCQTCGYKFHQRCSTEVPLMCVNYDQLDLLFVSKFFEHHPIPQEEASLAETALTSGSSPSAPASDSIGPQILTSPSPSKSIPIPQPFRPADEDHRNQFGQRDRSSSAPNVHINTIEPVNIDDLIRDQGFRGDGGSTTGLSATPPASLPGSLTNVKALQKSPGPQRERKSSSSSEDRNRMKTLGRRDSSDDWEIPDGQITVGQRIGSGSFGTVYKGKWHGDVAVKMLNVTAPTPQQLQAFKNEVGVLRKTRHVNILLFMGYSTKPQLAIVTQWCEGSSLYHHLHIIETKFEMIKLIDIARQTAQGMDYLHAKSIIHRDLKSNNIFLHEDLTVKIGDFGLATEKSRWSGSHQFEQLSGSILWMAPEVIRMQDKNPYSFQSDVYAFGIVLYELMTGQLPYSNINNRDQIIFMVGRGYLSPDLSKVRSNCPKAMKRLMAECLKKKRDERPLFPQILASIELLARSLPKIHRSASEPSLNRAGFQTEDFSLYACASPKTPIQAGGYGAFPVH

SMILES	pIC50
COC(=O)N[C@@H](C)CNc1nccc(-c2[nH]c(C3CC3)nc2-c2cc(F)cc(NS(=O)(=O)c3c(F)cccc3F)c2Cl)n1 [Example 1BI, (S)-Methyl 1-(4-(4-(2-chloro-3-(2,6-difluorophenylsulfonamido)-5-fluorophenyl)-2-cyclopropyl-1H-imidazol-5-yl)pyrimidin-2-ylamino)propan-2-ylcarbamate]	10.00
CC(C#N)CNc1nccc(-c2[nH]c(C3CC3)nc2-c2cccc(NS(C)(=O)=O)c2Cl)n1 (centres unmarked) [Example 1AK, N-(2-Chloro-3-(5-(2-(2-cyanopropylamino)pyrimidin-4-yl)-2-cyclopropyl-1H-imidazol-4-yl)phenyl)methanesulfonamide]	7.96
Nc1nccc(-c2[nH]c(C3CC3)nc2-c2cc(Cl)cc(NS(=O)(=O)c3c(F)cccc3F)c2F)n1 [Example 1BF, N-(3-(5-(2-Aminopyrimidin-4-yl)-2-cyclopropyl-1H-imidazol-4-yl)-5-chloro-2-fluorophenyl)-2,6-difluorobenzenesulfonamide]	10.00
CS(=O)(=O)Nc1cc(F)cc(-c2nc(C3CC3)[nH]c2-c2ccnc(N)n2)c1Cl [Example 1BQ, N-(3-(5-(2-Aminopyrimidin-4-yl)-2-cyclopropyl-1H-imidazol-4-yl)-2-chloro-5-fluorophenyl)methanesulfonamide]	7.92
COC(=O)N[C@@H](C)CNc1nccc(-c2nc(C3CC3)[nH]c2-c2cc(Cl)cc(NS(=O)(=O)CCC(F)(F)F)c2F)n1 [Example 1AA, (S)-Methyl 1-(4-(5-(5-chloro-2-fluoro-3-(3,3,3-trifluoropropylsulfonamido)phenyl)-2-cyclopropyl-1H-imidazol-4-yl)pyrimidin-2-ylamino)propan-2-ylcarbamate]	9.22
COC(=O)N[C@@H](C)CNc1nccc(-c2[nH]c(C3CC3)nc2-c2cc(Cl)cc(NS(=O)(=O)c3ccc(C(F)(F)F)cc3)c2F)n1 [Example 1BN, (S)-Methyl 1-(4-(4-(5-chloro-2-fluoro-3-(4-(trifluoromethyl)phenylsulfonamido)phenyl)-2-cyclopropyl-1H-imidazol-5-yl)pyrimidin-2-ylamino)propan-2-ylcarbamate]	8.15
COC(=O)N[C@@H](C)CNc1nccc(-c2[nH]c(C3CCC3)nc2-c2cc(Cl)cc(NS(C)(=O)=O)c2F)n1 [Example 1BT, (S)-Methyl 1-(4-(4-(5-chloro-2-fluoro-3-(methylsulfonamido)phenyl)-2-cyclobutyl-1H-imidazol-5-yl)pyrimidin-2-ylamino)propan-2-ylcarbamate]	9.64
CCCS(=O)(=O)Nc1cc(Cl)cc(-c2nc(C(C)(C)C)[nH]c2-c2ccnc(N)n2)c1F [Example 1BH, N-(3-(5-(2-Aminopyrimidin-4-yl)-2-tert-butyl-1H-imidazol-4-yl)-5-chloro-2-fluorophenyl)propane-1-sulfonamide]	10.10
COC(=O)N[C@@H](C)CNc1nccc(-c2nc(C3CC3)[nH]c2-c2cc(Cl)cc(NS(=O)(=O)c3cccc(F)c3)c2F)n1 [Example 1AX, (S)-Methyl 1-(4-(5-(5-chloro-2-fluoro-3-(3-fluorophenylsulfonamido)phenyl)-2-cyclopropyl-1H-imidazol-4-yl)pyrimidin-2-ylamino)propan-2-ylcarbamate]	9.48
CC1(c2nc(-c3cc(Cl)cc(NS(C)(=O)=O)c3F)c(-c3ccnc(NCCC#N)n3)[nH]2)CC1 [Example 1BB, N-(5-Chloro-3-(5-(2-(2-cyanoethylamino)pyrimidin-4-yl)-2-(1-methylcyclopropyl)-1H-imidazol-4-yl)-2-fluorophenyl)methanesulfonamide]	9.96
Cc1cc(NS(C)(=O)=O)c(F)c(-c2nc(C3(C)CC3)[nH]c2-c2ccnc(NCCC#N)n2)c1 [Example 1BA, N-(3-(5-(2-(2-Cyanoethylamino)pyrimidin-4-yl)-2-(1-methylcyclopropyl)-1H-imidazol-4-yl)-2-fluoro-5-methylphenyl)methanesulfonamide]	9.43
CC(C)(C)c1nc(-c2cc(Cl)cc(NS(=O)(=O)c3c(F)cccc3F)c2F)c(-c2ccnc(N)n2)[nH]1 [Example 1BE, N-(3-(5-(2-Aminopyrimidin-4-yl)-2-tert-butyl-1H-imidazol-4-yl)-5-chloro-2-fluorophenyl)-2,6-difluorobenzenesulfonamide]	9.89
COC(=O)N[C@@H](C)CNc1nccc(-c2[nH]c(C(C)(C)C)nc2-c2cc(Cl)cc(NS(=O)(=O)C3CC3)c2)n1 [Example 1F, (S)-methyl 1-(4-(2-tert-butyl-4-(3-chloro-5-(cyclopropanesulfonamido)phenyl)-1H-imidazol-5-yl)pyrimidin-2-ylamino)propan-2-ylcarbamate]	10.00
CCCS(=O)(=O)Nc1cc(F)cc(-c2nc(C3CC3)[nH]c2-c2ccnc(NC)n2)c1Cl [Example 1BX, N-(2-Chloro-3-(2-cyclopropyl-5-(2-(methylamino)pyrimidin-4-yl)-1H-imidazol-4-yl)-5-fluorophenyl)propane-1-sulfonamide]	9.96

The next lines start with the values.

pIC50	SMILES
9.42	CCCS(=O)(=O)Nc1cccc(-c2nc(C(C)(C)C)[nH]c2-c2ccnc(NC[C@H](C)NC(=O)OC)n2)c1F [Example 4B, (S)-Methyl 1-(4-(2-tert-butyl-4-(2-fluoro-3-(propylsulfonamido)phenyl)-1H-imidazol-5-yl)pyrimidin-2-ylamino)propan-2-ylcarbamate]
9.28	CCCS(=O)(=O)Nc1cc(Cl)cc(-c2[nH]c(C(C)(C)C)nc2-c2ccnc(NC[C@H](C)NC(=O)OC)n2)c1F [Example 4F, (S)-Methyl 1-(4-(2-tert-butyl-5-(5-chloro-2-fluoro-3-(propylsulfonamido)phenyl)-1H-imidazol-4-yl)pyrimidin-2-ylamino)propan-2-ylcarbamate]
9.80	CCCS(=O)(=O)Nc1cccc(-c2nc(C3CC3)[nH]c2-c2ccnc(NC[C@H](C)NC(=O)OC)n2)c1F [Example 4C, (S)-Methyl 1-(4-(2-cyclopropyl-4-(2-fluoro-3-(propylsulfonamido)phenyl)-1H-imidazol-5-yl)pyrimidin-2-ylamino)propan-2-ylcarbamate]
9.34	CCS(=O)(=O)Nc1cc(Cl)cc(-c2nc(C(C)(C)C)[nH]c2-c2ccnc(NC[C@H](C)NC(=O)OC)n2)c1F [Example 1AJ, (S)-Methyl 1-(4-(2-tert-butyl-4-(5-chloro-3-(ethylsulfonamido)-2-fluorophenyl)-1H-imidazol-5-yl)pyrimidin-2-ylamino)propan-2-ylcarbamate]
9.49	COC(=O)N[C@@H](C)CNc1nccc(-c2[nH]c(C(C)(C)C)nc2-c2cc(Cl)cc(NS(C)(=O)=O)c2)n1 [Example 1C, (S)-Methyl 1-(4-(2-tert-butyl-4-(3-chloro-5-(methylsulfonamido)phenyl)-1H-imidazol-5-yl)pyrimidin-2-ylamino)propan-2-ylcarbamate]
8.51	COC(=O)N[C@@H](C)CNc1nccc(-c2[nH]c(C(C)(C)C)nc2-c2cc(C)cc(NS(=O)(=O)C(C)C)c2)n1 [Example 1Q, (S)-Methyl 1-(4-(2-tert-butyl-4-(3-methyl-5-(1-methylethylsulfonamido)phenyl)-1H-imidazol-5-yl)pyrimidin-2-ylamino)propan-2-ylcarbamate]

Reference: US8563553B2, “Compounds and compositions as protein kinase inhibitors” (Novartis AG, priority 2009, dated 2013)
